Results published in PubChem BioAssay AID248 (DTP/NCI, 2004).
“And” between values parts separate entries of the source, which are not always exact repeats. Identical values can stand only once. Toxic doses and inconclusive results are not listed.

Tested on: L1210 leukemia ip in BDF1 mice, survival T/C
Experiment: NCI In Vivo Anticancer Drug Screen. Data for tumor model L1210 Leukemia (intraperitoneal) in B6D2F1 (BDF1) mice
Details: endpoint: mean survival time, higher = longer survival
Method in brief: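 Read-out is survival time, reported as the treated-group measurement over the vehicle-control measurement.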

[1] = dose: 100.0 mg/kg/injection, schedule: Q01DX001 (ip), vehicle: Klucel (hydroxypropylcellulose) (HPC)
[2] = dose: 100.0 mg/kg/injection, schedule: Q01DX001 (ip), vehicle: saline
[3] = dose: 75.0 mg/kg/injection, schedule: Q01DX001 (ip), vehicle: carboxymethylcellulose (CMC)
[4] = dose: 200.0 mg/kg/injection, schedule: Q01DX001 (ip), vehicle: saline
[5] = dose: 100.0 mg/kg/injection, schedule: Q01DX001 (ip), vehicle: carboxymethylcellulose (CMC)
[6] = dose: 200.0 mg/kg/injection, schedule: Q01DX001 (ip), vehicle: carboxymethylcellulose (CMC)
[7] = dose: 400.0 mg/kg/injection, schedule: Q01DX001 (ip), vehicle: saline
[8] = dose: 100.0 mg/kg/injection, schedule: Q01DX009 (ip), vehicle: saline
[9] = dose: 100.0 mg/kg/injection, schedule: Q04DX003 (ip), vehicle: saline with Tween-80
[10] = dose: 200.0 mg/kg/injection, schedule: Q01DX009 (ip), vehicle: saline
[11] = dose: 200.0 mg/kg/injection, schedule: Q04DX003 (ip), vehicle: saline with Tween-80
[12] = dose: 100.0 mg/kg/injection, schedule: Q01DX009 (ip), vehicle: Klucel (hydroxypropylcellulose) (HPC)
[13] = dose: 100.0 mg/kg/injection, schedule: Q04DX003 (ip), vehicle: Klucel (hydroxypropylcellulose) (HPC)
[14] = dose: 200.0 mg/kg/injection, schedule: Q04DX003 (ip), vehicle: Klucel (hydroxypropylcellulose) (HPC)
[15] = dose: 100.0 mg/kg/injection, schedule: Q04DX002 (ip), vehicle: Klucel (hydroxypropylcellulose) (HPC)
[16] = dose: 200.0 mg/kg/injection, schedule: Q04DX002 (ip), vehicle: Klucel (hydroxypropylcellulose) (HPC)

SMILES: CCN(CC)CCOc1cc(C)c2cc(Cc3ccccc3)ccc2n1
- T/C (dose: 100.0 mg/kg/injection, schedule: Q01DX001 (ip), vehicle: other): 104 % of control
- T/C (dose: 200.0 mg/kg/injection, schedule: Q01DX001 (ip), vehicle: other): 96 % of control

SMILES: O=c1cc2ccccc2c(O)[nH]1
- T/C (dose: 25.0 mg/kg/injection, schedule: Q01DX001 (ip), vehicle: saline): 107 % of control
- T/C (dose: 50.0 mg/kg/injection, schedule: Q01DX001 (ip), vehicle: saline): 111 % of control
- T/C [1]: 100 % of control
- T/C [2]: 114 % of control

SMILES: O=NN(CCI)C(=O)NCCI
- T/C (dose: 18.75 mg/kg/injection, schedule: Q01DX001 (ip), vehicle: carboxymethylcellulose (CMC)): 96 % of control
- T/C (dose: 37.5 mg/kg/injection, schedule: Q01DX001 (ip), vehicle: carboxymethylcellulose (CMC)): 98 % of control
- T/C (dose: 50.0 mg/kg/injection, schedule: Q01DX001 (ip), vehicle: carboxymethylcellulose (CMC)): 96 % of control
- T/C [3]: 100 % of control
- T/C [2]: 103 % of control
- T/C [4]: 110 % of control

SMILES: CCCCCCc1cc(N=Nc2ccc(S(=O)(=O)Nc3nnc(C)s3)cc2)c(O)cc1O
- T/C [5]: 98 % of control
- T/C [6]: 95 % of control

SMILES: CCOC(=O)C1=NN(c2ccccc2)C(=O)C1N=Nc1ccc(S(N)(=O)=O)cc1 (stereo unspecified)
- T/C [2]: 95 % of control
- T/C [4]: 93 % of control
- T/C [7]: 93 % of control

SMILES: O=[N+]([O-])c1ccc(C(O)Nc2nccs2)o1 (stereo unspecified)
- T/C (dose: 25.0 mg/kg/injection, schedule: Q01DX009 (ip), vehicle: saline with Tween-80): 96 % of control
- T/C (dose: 50.0 mg/kg/injection, schedule: Q01DX009 (ip), vehicle: saline with Tween-80): 117 % of control

SMILES: CCOC(=O)C(C(C)=O)C(=O)OCC
- T/C (dose: 25.0 mg/kg/injection, schedule: Q01DX009 (ip), vehicle: other): 101 % of control
- T/C (dose: 50.0 mg/kg/injection, schedule: Q01DX009 (ip), vehicle: other): 103 % of control
- T/C (dose: 100.0 mg/kg/injection, schedule: Q01DX009 (ip), vehicle: other): 109 % of control
- T/C (dose: 200.0 mg/kg/injection, schedule: Q01DX009 (ip), vehicle: other): 100 % of control
- T/C (dose: 400.0 mg/kg/injection, schedule: Q01DX009 (ip), vehicle: other): 95 % of control

SMILES: CS(=O)(=O)Oc1ccc2ccccc2c1[N+](=O)[O-]
- T/C [5]: 98 % of control
- T/C [6]: 98 % of control
- T/C (dose: 400.0 mg/kg/injection, schedule: Q01DX001 (ip), vehicle: carboxymethylcellulose (CMC)): 98 % of control

SMILES: COc1cc2c[n+](C)c3c4ccccc4ccc3c2cc1OC
- T/C (dose: 100.0 mg/kg/injection, schedule: Q01DX001 (ip), vehicle: saline with Tween-80): 88 % of control
- T/C (dose: 200.0 mg/kg/injection, schedule: Q01DX001 (ip), vehicle: saline with Tween-80): 88 % of control

SMILES: CN(C)CCCC(=O)O
- T/C [8]: 89 % of control
- T/C [9]: 106 % of control
- T/C [10]: 97 % of control
- T/C [11]: 95 % of control
- T/C (dose: 400.0 mg/kg/injection, schedule: Q01DX009 (ip), vehicle: saline): 95 % of control
- T/C (dose: 400.0 mg/kg/injection, schedule: Q04DX003 (ip), vehicle: saline with Tween-80): 88 % of control

SMILES: c1ccc(COC2NCCN2Cc2ccccc2)cc1 (stereo unspecified)
- T/C [2]: 98 % of control
- T/C [4]: 101 % of control
- T/C [7]: 101 % of control

SMILES: N=C1c2ccccc2-c2ccccc21
- T/C [9]: 96 % of control
- T/C [11]: 88 % of control

SMILES: OC1CNCCc2ccccc21 (stereo unspecified)
- T/C (dose: 25.0 mg/kg/injection, schedule: Q01DX009 (ip), vehicle: Klucel (hydroxypropylcellulose) (HPC)): 102 % of control
- T/C (dose: 50.0 mg/kg/injection, schedule: Q01DX009 (ip), vehicle: Klucel (hydroxypropylcellulose) (HPC)): 103 % of control
- T/C [12]: 94 % of control
- T/C [13]: 92 % of control
- T/C [14]: 88 % of control

SMILES: Cc1c(Cl)cccc1NC(=O)Nc1ccccc1
- T/C (dose: 25.0 mg/kg/injection, schedule: Q01DX009 (ip), vehicle: DMSO): 95 % of control
- T/C (dose: 50.0 mg/kg/injection, schedule: Q01DX009 (ip), vehicle: DMSO): 95 % of control
- T/C (dose: 100.0 mg/kg/injection, schedule: Q01DX009 (ip), vehicle: DMSO): 88 % of control
- T/C (dose: 100.0 mg/kg/injection, schedule: Q04DX003 (sc), vehicle: olive oil, sesame oil, peanut oil): 95 % of control
- T/C (dose: 200.0 mg/kg/injection, schedule: Q04DX003 (sc), vehicle: olive oil, sesame oil, peanut oil): 99 % of control
- T/C (dose: 400.0 mg/kg/injection, schedule: Q04DX003 (sc), vehicle: olive oil, sesame oil, peanut oil): 114 % of control

SMILES: N#CC1C(=O)NC(=O)C(C#N)C12CCN(Cc1ccccc1)CC2 (stereo unspecified)
- T/C [1]: 102 % of control
- T/C (dose: 200.0 mg/kg/injection, schedule: Q01DX001 (ip), vehicle: Klucel (hydroxypropylcellulose) (HPC)): 97 % of control
- T/C (dose: 400.0 mg/kg/injection, schedule: Q01DX001 (ip), vehicle: Klucel (hydroxypropylcellulose) (HPC)): 103 % of control

SMILES: Cc1ccc(CNc2ccc(Cl)cc2)cc1
- T/C [12]: 95 % of control
- T/C [13]: 96 % of control
- T/C (dose: 200.0 mg/kg/injection, schedule: Q01DX009 (ip), vehicle: Klucel (hydroxypropylcellulose) (HPC)): 104 % of control
- T/C [14]: 98 % of control
- T/C (dose: 400.0 mg/kg/injection, schedule: Q04DX003 (ip), vehicle: Klucel (hydroxypropylcellulose) (HPC)): 96 % of control

SMILES: CCCCCCCCCCCCCCCCCC[N+](C)=C1SCCS1
- T/C (dose: 1.56 mg/kg/injection, schedule: Q01DX009 (ip), vehicle: Klucel (hydroxypropylcellulose) (HPC)): 94 % of control
- T/C (dose: 3.13 mg/kg/injection, schedule: Q01DX009 (ip), vehicle: Klucel (hydroxypropylcellulose) (HPC)): 105 % of control
- T/C (dose: 6.25 mg/kg/injection, schedule: Q01DX009 (ip), vehicle: Klucel (hydroxypropylcellulose) (HPC)): 105 % of control

SMILES: O=CNNC(=O)c1cnccn1
- T/C [8]: 104 % of control
- T/C (dose: 100.0 mg/kg/injection, schedule: Q04DX003 (ip), vehicle: saline): 103 % of control
- T/C (dose: 177.0 mg/kg/injection, schedule: Q01DX009 (ip), vehicle: saline): 117 % of control
- T/C [10]: 115 % of control
- T/C (dose: 200.0 mg/kg/injection, schedule: Q04DX003 (ip), vehicle: saline): 97 % of control
- T/C (dose: 266.0 mg/kg/injection, schedule: Q01DX009 (ip), vehicle: saline): 114 % of control
- T/C (dose: 400.0 mg/kg/injection, schedule: Q04DX003 (ip), vehicle: saline): 120 % of control

SMILES: COc1ccc(C(=O)N/N=C/c2ccc(NC(C)=O)cc2)cc1
- T/C [15]: 100 % of control
- T/C [16]: 96 % of control
- T/C (dose: 400.0 mg/kg/injection, schedule: Q04DX002 (ip), vehicle: Klucel (hydroxypropylcellulose) (HPC)): 115 % of control

SMILES: COc1cc(C(=O)NC(=S)NCc2ccncc2)cc(OC)c1OC
- T/C [15]: 96 % of control
- T/C [16]: 88 % of control

SMILES: CC(=O)OCC1OC(OC(C)=O)C(NS(=O)(=O)c2ccc(C)cc2)C(OC(C)=O)C1OC(C)=O (stereo unspecified)
- T/C [2]: 102 % of control
- T/C [4]: 104 % of control
- T/C [7]: 102 % of control

SMILES: COc1cc(C=Nc2ccc3ccccc3c2)ccc1N(CCCl)CCCl
- T/C (dose: 0.9 mg/kg/injection, schedule: Q01DX009 (ip), vehicle: carboxymethylcellulose (CMC)): 102 % of control
- T/C (dose: 1.3 mg/kg/injection, schedule: Q01DX009 (ip), vehicle: carboxymethylcellulose (CMC)): 118 % of control
- T/C (dose: 1.5 mg/kg/injection, schedule: Q01DX009 (ip), vehicle: carboxymethylcellulose (CMC)): 108 % of control
- T/C (dose: 3.0 mg/kg/injection, schedule: Q01DX009 (ip), vehicle: carboxymethylcellulose (CMC)): 114 % of control and 117 % of control
- T/C (dose: 6.0 mg/kg/injection, schedule: Q01DX009 (ip), vehicle: carboxymethylcellulose (CMC)): 122 % of control
- T/C (dose: 20.0 mg/kg/injection, schedule: Q01DX009 (ip), vehicle: carboxymethylcellulose (CMC)): 119 % of control
- T/C (dose: 30.0 mg/kg/injection, schedule: Q01DX009 (ip), vehicle: carboxymethylcellulose (CMC)): 100 % of control
- T/C (dose: 40.0 mg/kg/injection, schedule: Q01DX001 (ip), vehicle: carboxymethylcellulose (CMC)): 151 % of control
- T/C [3]: 119 % of control
